Measured values: PubChem BioAssay AID248 (DTP/NCI, 2004)
Where “and” joins values, the source holds several entries; their conditions need not be identical. Identical values can stand only once. Toxic doses and inconclusive results are not listed.

Tested on: L1210 leukemia ip in BDF1 mice, survival T/C
Assay: NCI In Vivo Anticancer Drug Screen. Data for tumor model L1210 Leukemia (intraperitoneal) in B6D2F1 (BDF1) mice
Conditions: endpoint: mean survival time, higher = longer survival
How it was run: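 Antitumor effect is assessed in tumor-bearing animals. Survival in the compound arm is compared with a vehicle-dosed control arm and expressed as their quotient.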

[1] = dose: 100.0 mg/kg/injection, schedule: Q01DX009 (ip), vehicle: Klucel (hydroxypropylcellulose) (HPC)
[2] = dose: 200.0 mg/kg/injection, schedule: Q01DX009 (ip), vehicle: Klucel (hydroxypropylcellulose) (HPC)
[3] = dose: 400.0 mg/kg/injection, schedule: Q01DX009 (ip), vehicle: Klucel (hydroxypropylcellulose) (HPC)
[4] = dose: 100.0 mg/kg/injection, schedule: Q01DX009 (ip), vehicle: saline with Tween-80
[5] = dose: 200.0 mg/kg/injection, schedule: Q01DX009 (ip), vehicle: saline with Tween-80
[6] = dose: 400.0 mg/kg/injection, schedule: Q01DX009 (ip), vehicle: saline with Tween-80
[7] = dose: 100.0 mg/kg/injection, schedule: Q04DX003 (ip), vehicle: saline
[8] = dose: 6.25 mg/kg/injection, schedule: Q01DX009 (ip), vehicle: saline
[9] = dose: 12.5 mg/kg/injection, schedule: Q01DX009 (ip), vehicle: saline
[10] = dose: 100.0 mg/kg/injection, schedule: Q04DX003 (ip), vehicle: saline with Tween-80
[11] = dose: 200.0 mg/kg/injection, schedule: Q04DX003 (ip), vehicle: saline with Tween-80
[12] = dose: 400.0 mg/kg/injection, schedule: Q04DX003 (ip), vehicle: saline with Tween-80

SMILES: CCOC(=O)C(C(=O)Nc1ccccc1)C(=O)OCC
- T/C [1]: 99 % of control
- T/C (dose: 100.0 mg/kg/injection, schedule: Q04DX003 (ip), vehicle: Klucel (hydroxypropylcellulose) (HPC)): 90 % of control
- T/C [2]: 100 % of control
- T/C (dose: 200.0 mg/kg/injection, schedule: Q04DX003 (ip), vehicle: Klucel (hydroxypropylcellulose) (HPC)): 93 % of control
- T/C [3]: 105 % of control
- T/C (dose: 400.0 mg/kg/injection, schedule: Q04DX003 (ip), vehicle: Klucel (hydroxypropylcellulose) (HPC)): 98 % of control

SMILES: O=P(N1CCCC1)(N1CC1)N1CC1
- T/C (dose: 1.3 mg/kg/injection, schedule: Q01DX Z (ip), vehicle: carboxymethylcellulose (CMC)): 94 % of control
- T/C (dose: 2.0 mg/kg/injection, schedule: Q01DX Z (ip), vehicle: carboxymethylcellulose (CMC)): 109 % of control
- T/C (dose: 2.0 mg/kg/injection, schedule: Q01DX Z (ip), vehicle: saline): 114 % of control and 120 % of control
- T/C (dose: 3.0 mg/kg/injection, schedule: Q01DX Z (ip), vehicle: carboxymethylcellulose (CMC)): 109 % of control
- T/C (dose: 4.5 mg/kg/injection, schedule: Q01DX Z (ip), vehicle: carboxymethylcellulose (CMC)): 160 % of control
- T/C (dose: 7.5 mg/kg/injection, schedule: Q01DX Z (ip), vehicle: saline): 118 % of control

SMILES: CCCCC(CC)C(O)CC(O)CC (stereo not given)
- T/C [4]: 92 % of control
- T/C [5]: 92 % of control
- T/C [6]: 95 % of control

SMILES: O=C(O)C1(c2ccccc2)OCCO1
- T/C [4]: 95 % of control
- T/C [5]: 94 % of control
- T/C [6]: 95 % of control

SMILES: CC(=O)CC(=O)Nc1cccnc1
- T/C (dose: 100.0 mg/kg/injection, schedule: Q01DX001 (ip), vehicle: carboxymethylcellulose (CMC)): 100 % of control
- T/C (dose: 200.0 mg/kg/injection, schedule: Q01DX001 (ip), vehicle: carboxymethylcellulose (CMC)): 96 % of control
- T/C (dose: 400.0 mg/kg/injection, schedule: Q01DX001 (ip), vehicle: carboxymethylcellulose (CMC)): 100 % of control

SMILES: C=C[C@H]1CN2CC[C@H]1C[C@@H]2[C@@H](O)c1ccnc2ccccc12
- T/C [1]: 101 % of control
- T/C (dose: 100.0 mg/kg/injection, schedule: Q04DX002 (ip), vehicle: Klucel (hydroxypropylcellulose) (HPC)): 103 % of control
- T/C [2]: 93 % of control
- T/C (dose: 200.0 mg/kg/injection, schedule: Q04DX002 (ip), vehicle: Klucel (hydroxypropylcellulose) (HPC)): 103 % of control
- T/C [3]: 93 % of control
- T/C (dose: 400.0 mg/kg/injection, schedule: Q04DX002 (ip), vehicle: Klucel (hydroxypropylcellulose) (HPC)): 96 % of control

SMILES: CCOC1(OCC)CS(=O)(=O)C1
- T/C (dose: 25.0 mg/kg/injection, schedule: Q01DX009 (ip), vehicle: saline sonified): 100 % of control
- T/C (dose: 50.0 mg/kg/injection, schedule: Q01DX009 (ip), vehicle: saline sonified): 95 % of control
- T/C (dose: 100.0 mg/kg/injection, schedule: Q01DX009 (ip), vehicle: saline sonified): 106 % of control
- T/C [7]: 109 % of control
- T/C (dose: 200.0 mg/kg/injection, schedule: Q04DX003 (ip), vehicle: saline): 117 % of control
- T/C (dose: 400.0 mg/kg/injection, schedule: Q04DX003 (ip), vehicle: saline): 112 % of control

SMILES: Nc1ccn(C2OC(CO)C(O)C2OP(=O)(O)OCC2OC(n3ccc(=O)[nH]c3=O)CC2O)c(=O)n1 (stereo not given)
- T/C (dose: 50.0 mg/kg/injection, schedule: Q01DX009 (ip), vehicle: saline): 153 % of control
- T/C (dose: 100.0 mg/kg/injection, schedule: Q01DX009 (ip), vehicle: saline): 166 % of control

SMILES: CC[N+](CC)(CC)Cc1ccccc1 (tested in a mixture with another compound)
- T/C [8]: 97 % of control
- T/C [9]: 103 % of control
- T/C (dose: 25.0 mg/kg/injection, schedule: Q01DX001 (ip), vehicle: saline): 96 % of control
- T/C (dose: 25.0 mg/kg/injection, schedule: Q01DX009 (ip), vehicle: saline): 95 % of control and 108 % of control
- T/C (dose: 25.0 mg/kg/injection, schedule: Q04DX003 (ip), vehicle: saline): 111 % of control and 96 % of control
- T/C (dose: 50.0 mg/kg/injection, schedule: Q01DX001 (ip), vehicle: saline): 112 % of control
- T/C (dose: 50.0 mg/kg/injection, schedule: Q04DX003 (ip), vehicle: saline): 102 % of control and 104 % of control
- T/C (dose: 100.0 mg/kg/injection, schedule: Q01DX001 (ip), vehicle: saline): 98 % of control and 106 % of control
- T/C [4]: 92 % of control
- T/C [7]: 88 % of control
- T/C [5]: 96 % of control
- T/C [6]: 92 % of control

SMILES: COc1cc(NC(=O)c2ccc(Cl)cc2Cl)c(OC)cc1Cl
- T/C (dose: 50.0 mg/kg/injection, schedule: Q01DX009 (ip), vehicle: saline with Tween-80): 90 % of control
- T/C [4]: 90 % of control
- T/C [5]: 96 % of control

SMILES: CCCCNC(=O)C1C2C=CC(C2)C1C(=O)NCCCC (stereo not given)
- T/C [10]: 96 % of control
- T/C [11]: 96 % of control
- T/C [12]: 91 % of control

SMILES: Cc1ccccc1C(c1ccccc1C)c1ccccc1C(=O)O
- T/C [4]: 103 % of control
- T/C [10]: 105 % of control
- T/C [5]: 100 % of control
- T/C [11]: 93 % of control
- T/C [6]: 97 % of control
- T/C [12]: 98 % of control

SMILES: CCOC(=O)c1cnc(SC)nc1Nc1ccc(Cl)cc1Cl
- T/C [1]: 103 % of control
- T/C [2]: 97 % of control
- T/C [3]: 92 % of control

SMILES: Cc1nc2ccc(Cl)cc2c(=O)[nH]1
- T/C (dose: 100.0 mg/kg/injection, schedule: Q01DX001 (ip), vehicle: other): 102 % of control
- T/C (dose: 100.0 mg/kg/injection, schedule: Q04DX003 (ip), vehicle: other): 96 % of control
- T/C (dose: 200.0 mg/kg/injection, schedule: Q01DX001 (ip), vehicle: other): 96 % of control
- T/C (dose: 200.0 mg/kg/injection, schedule: Q04DX003 (ip), vehicle: other): 96 % of control
- T/C (dose: 400.0 mg/kg/injection, schedule: Q01DX001 (ip), vehicle: other): 104 % of control
- T/C (dose: 400.0 mg/kg/injection, schedule: Q04DX003 (ip), vehicle: other): 96 % of control

SMILES: CCC[N+](C)(C)CCCCOCCCC[N+](C)(C)CCC
- T/C (dose: 3.12 mg/kg/injection, schedule: Q01DX009 (ip), vehicle: saline): 104 % of control
- T/C [8]: 92 % of control
- T/C [9]: 103 % of control
- T/C (dose: 12.5 mg/kg/injection, schedule: Q04DX003 (ip), vehicle: saline): 95 % of control

SMILES: NCCc1cn(C2OC(CO)C(O)C(O)C2O)c2ccccc12 (stereo not given)
- T/C (dose: 25.0 mg/kg/injection, schedule: Q01DX005 (ip), vehicle: saline): 96 % of control and 106 % of control
- T/C (dose: 50.0 mg/kg/injection, schedule: Q01DX005 (ip), vehicle: saline): 96 % of control
- T/C (dose: 100.0 mg/kg/injection, schedule: Q01DX005 (ip), vehicle: saline): 109 % of control and 87 % of control
